Source: ChEMBL document CHEMBL1201862, “PubChem BioAssay data set” (2004)
Activity calls are given as the source filed them. Cut-off read from the data, not from the text of the source: actives have a measured IC50 and inactives only a lower limit.

Molecular target: Envelope glycoprotein gp160 (Human immunodeficiency virus 1, UniProt Q6QLK5)
Experiment: inhibitors of HIV fusion peptide binding, primary screen, biochemical, uHTS, fluorescence dequenching (AID 1986)

Chain of Envelope glycoprotein gp160 (Q6QLK5 whole entry, the tested form may be a part): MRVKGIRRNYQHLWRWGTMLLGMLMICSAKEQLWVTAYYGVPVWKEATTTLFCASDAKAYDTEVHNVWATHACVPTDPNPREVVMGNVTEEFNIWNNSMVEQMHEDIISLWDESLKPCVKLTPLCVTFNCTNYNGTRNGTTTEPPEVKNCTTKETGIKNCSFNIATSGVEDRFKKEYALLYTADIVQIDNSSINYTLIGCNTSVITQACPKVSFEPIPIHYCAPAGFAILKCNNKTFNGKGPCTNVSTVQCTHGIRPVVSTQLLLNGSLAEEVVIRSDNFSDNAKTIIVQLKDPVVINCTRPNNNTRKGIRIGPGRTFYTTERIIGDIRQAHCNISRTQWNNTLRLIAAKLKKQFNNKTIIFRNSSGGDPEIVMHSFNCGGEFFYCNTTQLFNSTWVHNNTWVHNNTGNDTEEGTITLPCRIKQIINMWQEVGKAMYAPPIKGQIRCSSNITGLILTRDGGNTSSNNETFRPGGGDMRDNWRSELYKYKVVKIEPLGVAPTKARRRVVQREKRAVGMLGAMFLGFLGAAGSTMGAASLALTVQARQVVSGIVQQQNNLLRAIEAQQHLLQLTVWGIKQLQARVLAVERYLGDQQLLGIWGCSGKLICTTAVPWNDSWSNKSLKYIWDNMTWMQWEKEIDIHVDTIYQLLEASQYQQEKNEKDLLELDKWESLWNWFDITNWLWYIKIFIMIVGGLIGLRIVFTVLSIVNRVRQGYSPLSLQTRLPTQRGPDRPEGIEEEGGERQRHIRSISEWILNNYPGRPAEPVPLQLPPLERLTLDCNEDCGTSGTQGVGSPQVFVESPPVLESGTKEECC

Row | Structure (SMILES) | IC50
1 | CCc1nnc(NS(=O)(=O)c2ccc(NC(=S)NC(=O)/C=C/c3ccc(C(C)C)cc3)cc2)s1 | 12.1 µM (active)
2 | O=C(O)c1ccc(N/N=C/c2ccc(-c3cccc(Cl)c3)o2)cc1 | 22.2 µM (active)
3 | CCOc1cc(/C=N/Nc2cccc(C(=O)O)c2)ccc1OC(=O)c1ccccc1 | 23.4 µM (active)
